Experimental data taken from patent US20210045385A1, “PYRIDAZINONE-SUBSTITUTED KETOXIMES AS HERBICIDES” (FMC Corporation, priority 2018, published 2021).

Key:
Assay type in all cases: in vivo
rice (Oryza sativa) = experiment: Test D flooded paddy test, visual plant response rating; details: 250 g ai/ha, scale 0 to 100 (0 no effect, 100 complete control), 13 to 15 d
How it was run: (§1)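 2-leaf plants, flooded 3 cm, cpd into paddy water; greenhouse 13–15 d; visual rating vs controls, 0 = no effect, 100 = complete control; dash = no result.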

[1] = system: duck salad (Heteranthera limosa); experiment: as above; details: 250 g ai/ha, scale 0 to 100 (0 no effect, 100 complete control), 13 to 15 d
How it was run: as §1

[2] = system: barnyardgrass (Echinochloa crus-galli); experiment: as above; details: 250 g ai/ha, scale 0 to 100 (0 no effect, 100 complete control), 13 to 15 d
How it was run: as §1

[3] = system: sedge umbrella (small-flower umbrella sedge, Cyperus difformis); experiment: as above; details: 250 g ai/ha, scale 0 to 100 (0 no effect, 100 complete control), 13 to 15 d
How it was run: as §1

[4] = system: foxtail, giant (giant foxtail, Setaria faberi); experiment: Test C preemergence, visual plant response rating
How it was run: (§2)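 Compounds in a non-phytotoxic solvent with surfactant were applied as a directed soil spray preemergence or to 2–10 cm, one- to two-leaf plants postemergence, in loam–sand soil. After about 10 d in a greenhouse, injury was visually rated against untreated controls on a 0–100 scale (100 = complete control).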

[5] = system: Italian ryegrass (Lolium mutiflorum); experiment: Test C preemergence, visual plant response rating
How it was run: as §2

[6] = system: ragweed (common ragweed, Ambrosia artemisiifolia); experiment: Test C preemergence, visual plant response rating
How it was run: as §2

[7] = system: pigweed (Amaranthus retroflexus); experiment: Test C preemergence, visual plant response rating
How it was run: as §2

[8] = system: barnyardgrass (Echinochloa crus-galli); experiment: Test C preemergence, visual plant response rating
How it was run: as §2

kochia (Bassia scoparia) [9] = experiment: Test C preemergence, visual plant response rating
How it was run: as §2

[10] = system: blackgrass (Alopecurus myosuroides); experiment: Test C postemergence, visual plant response rating
How it was run: as §2

[11] = system: foxtail, giant (giant foxtail, Setaria faberi); experiment: Test C postemergence, visual plant response rating
How it was run: as §2

[12] = system: Italian ryegrass (Lolium mutiflorum); experiment: Test C postemergence, visual plant response rating
How it was run: as §2

[13] = system: ragweed (common ragweed, Ambrosia artemisiifolia); experiment: Test C postemergence, visual plant response rating
How it was run: as §2

[14] = system: pigweed (Amaranthus retroflexus); experiment: Test C postemergence, visual plant response rating
How it was run: as §2

[15] = system: wheat (Triticum aestivum); experiment: Test C postemergence, visual plant response rating
How it was run: as §2

[16] = system: barnyardgrass (Echinochloa crus-galli); experiment: Test C postemergence, visual plant response rating
How it was run: as §2

kochia (Bassia scoparia) [17] = experiment: Test C postemergence, visual plant response rating
How it was run: as §2

corn (Zea mays) = experiment: Test C postemergence, visual plant response rating
How it was run: as §2

[18] = system: galium (catchweed bedstraw, Galium aparine); experiment: Test C postemergence, visual plant response rating
How it was run: as §2

[19] = Test C, 31 g ai/ha, 0 is no effect, 100 is complete control
[20] = Test C, postemergence, 125 g ai/ha
[21] = Test C, 125 g ai/ha, 0 is no effect, 100 is complete control

Compound | Plant response rating, Rice (Flood) (rice (Oryza sativa)) | Plant response rating, Ducksalad (Flood) [1] | Plant response rating, Barnyardgrass (Flood) [2] | Plant response rating, Sedge, Umbrella (Flood) [3] | Foxtail, Giant plant response rating (0 to 100 scale) [4, 19] | Ryegrass, Italian plant response rating (0 to 100 scale) [5, 19] | Ragweed plant response rating (0 to 100 scale) [6, 19] | Pigweed plant response rating (0 to 100 scale) [7, 19] | Barnyardgrass plant response rating (0 to 100 scale) [8, 19] | Kochia plant response rating (0 to 100 scale) (kochia (Bassia scoparia) [9]; [19]) | Blackgrass plant response rating (0 to 100 scale) ([10]; Postemergence, 31 g ai/ha) | Blackgrass plant response rating (0 to 100 scale) [10, 20] | Foxtail, Giant plant response rating (0 to 100 scale) ([11]; Postemergence, 31 g ai/ha) | Foxtail, Giant plant response rating (0 to 100 scale) [11, 20] | Ryegrass, Italian plant response rating (0 to 100 scale) ([12]; Postemergence, 31 g ai/ha) | Ryegrass, Italian plant response rating (0 to 100 scale) [12, 20] | Ragweed plant response rating (0 to 100 scale) ([13]; Postemergence, 31 g ai/ha) | Ragweed plant response rating (0 to 100 scale) [13, 20] | Pigweed plant response rating (0 to 100 scale) ([14]; Postemergence, 31 g ai/ha) | Pigweed plant response rating (0 to 100 scale) [14, 20] | further results
C#CCO/N=C(\c1ccc(Cl)c(Cl)c1)c1c(O)c(C)nn(C)c1=O [Compound 166] | 0 | 0 | 0 | 0 | 0 | 10 | 0 | 0 | 0 | 0 | 0 | 20 | 10 | 30 | 0 | 80 | 20 | 30 | 30 | 50 | Foxtail, Giant plant response rating (0 to 100 scale) ([4]; 125 g ai/ha): 60; Ryegrass, Italian plant response rating (0 to 100 scale) ([5]; 125 g ai/ha): 60; Ragweed plant response rating (0 to 100 scale) ([6]; 125 g ai/ha): 10; Pigweed plant response rating (0 to 100 scale) ([7]; 125 g ai/ha): 50; Barnyardgrass plant response rating (0 to 100 scale) ([8]; 125 g ai/ha): 50; Kochia plant response rating (0 to 100 scale) (kochia (Bassia scoparia) [9]; 125 g ai/ha): 80; Wheat plant response rating (0 to 100 scale) ([15]; Postemergence, 31 g ai/ha): 0; Wheat plant response rating (0 to 100 scale) [15, 20]: 60; Barnyardgrass plant response rating (0 to 100 scale) ([16]; Postemergence, 31 g ai/ha): 20; Barnyardgrass plant response rating (0 to 100 scale) [16, 20]: 30; Kochia plant response rating (0 to 100 scale) (kochia (Bassia scoparia) [17]; Postemergence, 31 g ai/ha): 30; Kochia plant response rating (0 to 100 scale) (kochia (Bassia scoparia) [17]; [20]): 40; Corn plant response rating (0 to 100 scale) (corn (Zea mays); Postemergence, 31 g ai/ha): 0; Corn plant response rating (0 to 100 scale) (corn (Zea mays); [20]): 20; Galium plant response rating (0 to 100 scale) ([18]; Postemergence, 31 g ai/ha): 50; Galium plant response rating (0 to 100 scale) [18, 20]: 80
CC(C)O/N=C(/c1c(O)c(Cl)nn(C)c1=O)c1ccc(F)c2ccccc12 [Compound 209] | 0 | 50 | 0 | 80 | 80 | 10 | 90 | 20 | 50 | 0 | 10 | 30 | 70 | 90 | 10 | 40 | 90 | 90 | 50 | 90 | Foxtail, Giant plant response rating (0 to 100 scale) [4, 21]: 100; Ryegrass, Italian plant response rating (0 to 100 scale) [5, 21]: 30; Ragweed plant response rating (0 to 100 scale) [6, 21]: 90; Pigweed plant response rating (0 to 100 scale) [7, 21]: 100; Barnyardgrass plant response rating (0 to 100 scale) [8, 21]: 80; Kochia plant response rating (0 to 100 scale) (kochia (Bassia scoparia) [9]; [21]): 40; Wheat plant response rating (0 to 100 scale) ([15]; Postemergence, 31 g ai/ha): 0; Wheat plant response rating (0 to 100 scale) [15, 20]: 0; Barnyardgrass plant response rating (0 to 100 scale) ([16]; Postemergence, 31 g ai/ha): 50; Barnyardgrass plant response rating (0 to 100 scale) [16, 20]: 80; Kochia plant response rating (0 to 100 scale) (kochia (Bassia scoparia) [17]; Postemergence, 31 g ai/ha): 10; Kochia plant response rating (0 to 100 scale) (kochia (Bassia scoparia) [17]; [20]): 40; Corn plant response rating (0 to 100 scale) (corn (Zea mays); Postemergence, 31 g ai/ha): 10; Corn plant response rating (0 to 100 scale) (corn (Zea mays); [20]): 20; Galium plant response rating (0 to 100 scale) ([18]; Postemergence, 31 g ai/ha): 90; Galium plant response rating (0 to 100 scale) [18, 20]: 100
C#CCO/N=C(/c1cccc(/C=C\Cl)c1)c1c(O)c(C)nn(C)c1=O [Compound 261] | 0 | 0 | 0 | 0 | 0 | 0 | 0 | 0 | 0 | 0 | 0 | 60 | 10 | 50 | 0 | 60 | 40 | 60 | 50 | 60 | Foxtail, Giant plant response rating (0 to 100 scale) [4, 21]: 10; Ryegrass, Italian plant response rating (0 to 100 scale) [5, 21]: 70; Ragweed plant response rating (0 to 100 scale) [6, 21]: 10; Pigweed plant response rating (0 to 100 scale) [7, 21]: 10; Barnyardgrass plant response rating (0 to 100 scale) [8, 21]: 0; Kochia plant response rating (0 to 100 scale) (kochia (Bassia scoparia) [9]; [21]): 0; Wheat plant response rating (0 to 100 scale) ([15]; Postemergence, 31 g ai/ha): 0; Wheat plant response rating (0 to 100 scale) [15, 20]: 50; Barnyardgrass plant response rating (0 to 100 scale) ([16]; Postemergence, 31 g ai/ha): 20; Barnyardgrass plant response rating (0 to 100 scale) [16, 20]: 40; Kochia plant response rating (0 to 100 scale) (kochia (Bassia scoparia) [17]; Postemergence, 31 g ai/ha): 30; Kochia plant response rating (0 to 100 scale) (kochia (Bassia scoparia) [17]; [20]): 60; Corn plant response rating (0 to 100 scale) (corn (Zea mays); Postemergence, 31 g ai/ha): 0; Corn plant response rating (0 to 100 scale) (corn (Zea mays); [20]): 10; Galium plant response rating (0 to 100 scale) ([18]; Postemergence, 31 g ai/ha): 40; Galium plant response rating (0 to 100 scale) [18, 20]: 80
